≈ marks a conversion by molar mass, not a printed value. Where “and” joins values, the source holds several entries; their conditions need not be identical. Equal entries are not always repeated. Some results are limits rather than exact numbers.

One data set has as its system EcTolC. Briefly: microbe, parasite or virus in culture. The format is cell-based. Particulars: Escherichia coli, 18 h, LB medium, read-out: EcTolC %inh. At 50 μM.
A further data set relates to MtbH37Rv. The format is cell-based, Mycobacterium tuberculosis.
The target in data set [1] is T1, MtbIspE (Mycobacterium tuberculosis, UniProt P9WKG7). Nature of the data set: MtbIspE binding study via thermal shift assay. Particulars: read-out: MtbIspE ΔTm at 20 μM.
T1 sequence (P9WKG7 whole entry): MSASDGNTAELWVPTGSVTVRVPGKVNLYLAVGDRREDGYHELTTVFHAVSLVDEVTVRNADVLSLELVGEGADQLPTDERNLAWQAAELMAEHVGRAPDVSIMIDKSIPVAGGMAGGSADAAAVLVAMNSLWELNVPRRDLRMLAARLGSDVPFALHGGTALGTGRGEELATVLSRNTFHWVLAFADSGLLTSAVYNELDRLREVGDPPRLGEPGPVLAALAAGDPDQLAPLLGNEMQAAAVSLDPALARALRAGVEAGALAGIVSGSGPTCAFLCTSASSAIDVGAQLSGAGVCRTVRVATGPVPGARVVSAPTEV
In data set [2] the target is T1, MtbIspE. Briefly: target-directed dynamic combinatorial chemistry (tdDCC), amplification of acylhydrazones in protein-templated vs blank DCL (HPLC-MS/MS, UV 310 nm). Particulars: for Amplification factors (DCL-4): DCL-4, 24 h; for Amplification factors (DCL-4) / Amplification factors (DCL-3): 40 mol % MtbIspE; for Amplification factors (DCL-3): DCL-3, 24 h, I1 and K1 integrated as one cluster. The class given is binding. The protocol:
In this study, we used MtbIspE as target protein and the reversible reaction of hydrazides and aldehydes to form dynamic combinatorial libraries (DCLs) of acylhydrazones. […] To accelerate the reaction at neutral pH, aniline was used as nucleophilic catalyst activating the aldehydes.[2],[4],[19] We analyzed the protein’s effect on the DCLs by comparing HPLC-MS/MS data of blank vs protein-templated (PT) experiments. The experiments spanned 3 days, with periodic sampling (every 2 h, followed by two samples per day after 8 h). The addition of NaOH to raise the pH and halt the reactions ensured the sample composition was preserved for analysis.[19] Templated experiments were conducted in duplicate, and the protein was denatured and removed prior to HPLC-MS/MS analysis.
The tdDCC hits and thus potential MtbIspE binders are amplified in the PT experiment compared to the blank experiment. The first step in the analysis of DCLs is the determination of the equilibrium since the amplification factors need to be calculated when the concentration of products is stable. To determine the evolution of the possible products, it is important to measure the characteristic UV absorbance of the acylhydrazones linker (310 nm) during the HPLC-MS/MS run. The resulting UV peaks are assigned to each product using the MS data (Figures S3–S6). The sum of all peak areas is normalized to 100% in order to obtain the respective relative peak area (RPA) for each product. The RPA values represent relative concentrations, determined at each time point of the blank experiment until the values stabilize. […] However, the rest of the compounds are out of range, making a visual inspection difficult. […] The other three libraries behaved in the same way, reaching equilibrium within 24 h and also maintained stable concentrations beyond (Figures S7–S9). To determine the tdDCC hits, we compared the RPAs of the PT experiments to the blanks at 24 h and set a threshold of at least 50% increase in compound formation. In total, 11 acylhydrazones passed our criteria, with amplification factors ranging from […] to 15.5, qualifying them for resynthesis and further evaluation (Figure 3). During the analysis of chromatograms, challenges arose concerning product identification. Some compound peaks were not neatly separated, forcing us to consider them in clusters, others presented two peaks, likely due to isomers, and were considered separately in our evaluation. Lastly, some compounds were detected by MS, but their respective UV signal interfered with the injection peak or was too low for integration (<1%), both in the blank and PT experiments. Consequently, we excluded these compounds from the analysis (Figure S3–S6).
To a well of a 24-well plate, containing Tris buffer (pH 7.0) were added hydrazides (300 μM each, in DMSO), aldehydes (100 μM each, in DMSO), aniline (20 mM, in DMSO), the protein MtbIspE (25 or 40 μM in Tris buffer at pH 7.0), and an additional amount of DMSO to reach a final concentration of 5% in the DCL with 0.5 mL of end-volume. The DCL was allowed to mix on a plate shaker at room temperature and was frequently monitored via LCMS-MS. For analysis, 30 μL of the corresponding library was mixed with 42 μL acetonitrile and 3 μL of NaOH (1 M), the mixture was centrifuged, and the supernatant was used for the analysis. PT experiments were run in duplicates and the protein was omitted for the blank experiments.
High-resolution mass (HRMS) of final products was determined by HPLC-MS/MS using a Thermo Scientific Q Exactive Focus Orbitrap LC -MS/MS system. All compounds were analyzed for purity by LCMS on Acquity UPLC-SQD system from Waters with a gradient elution of Water (Formic acid 0.1%)/Acetonitrile on an HSS - T3 column (2.1 x 50 mm, Waters), 1.8 µm, at 30°C, PDA detection between 240 -320 nm, and MS detection by simultaneous ES+/ES- ionization in a mass range of 150 -800. The flow is set to 0.9 ml/min, and the […]
gradient time is 1.5 min. […]

Another data set in a line: in vitro. Particulars: human, HepG2 CC50, HepG2, 48 h, MTT.
Another data set is described as follows: physchem. Particulars: aqueous with cosolvent or surfactant or cyclodextrin, kinetic from dmso stock, solubility 5% DMSO in PBS.
The target in data set [3] is T1, MtbIspE. Nature of the data set: MtbIspE binding study via MicroScale Thermophoresis (MST). The settings on record: MST, 20 μM ligand, 200 nM MtbIspE, triplicate; qualitative. On the technique in general: In MST a laser heats a spot of the sample, and binding alters the fluorescence response.
A short description of data set [4]: solubility in M. tuberculosis 7H9 growth medium. Particulars: Mtb 7H9 growth medium; for solubility: M. tuberculosis 7H9 growth medium, plasma or biological fluid, kinetic from dmso stock. The format is physicochemical. The method, then:
Prior to biological evaluation of the tdDCC hits, we tested their solubility in a standard buffer as well as in M. tuberculosis 7H9 growth medium. […] Regrettably, with 3.3 μM the least soluble compound is E1, making our most amplified and promising compound unsuitable for biological evaluation. We assessed the solubility in Mtb growth medium given that it is a complex, nutrient-rich environment with a distinct solubility profile. However, the trend continued, only seven hits are soluble at 8 μM or above, the remaining five compounds, including E1, were not eligible for antitubercular activity testing (Table 1).
Determination of in vitro anti-tubercular activity and solubility in 7H9 medium Anti-tubercular tests were performed as previously described .1 In brief, 7H9 complete medium (BD Difco; Becton Dickinson, Maryland,USA) supplemented with 10% OADC (BD), 0.2% glycerol, and 0.05% Tween80 as previously described ,3 was used to culture Mycobacterium tuberculosis (Mtb) strain H37Rv (ATCC 25618) carrying a mCherry -expressing plasmid (pCherry10 ).4 Cultures were harvested at mid-log phase and frozen in aliquots at – 80 °C. Prior to testing aliquots were thawed followed by centrifugation and the pellet was resuspended in 7H9 medium with 10% OADC (without glycerol and Tween80). This was further thoroughly resuspended by passing it through a syringe with a 26 -gauge needle to avoid clumping of the bacteria. 2×10^5 CFU (colony forming units) were then cultured in a total volume of 100 μl culture medium (triplicates) to test the non-precipitating compounds for the anti-tubercular activity at the concentrations indicated. For these assays, 96-well flat clear bottom black polystyrene microplates (Corning® CellBIND®, Merck, New York, USA) wer e used. Each plate had Rifampicin (at 1 μg/ml and 0.1 μg/ml) (National Reference Center, Borstel) as a reference compound. Plates were sealed with an air -permeable membrane (Porvair Sciences, Wrexham, UK) in a 37 °C incubator with mild agitation (TiMix5, Edmund Bühler, Germany). The activity of compounds was determined after 7 days by measuring the bacterial growth as relative light units (RLU) from the fluorescence intensity obtained at an excitation wavelength of 575 nm and an emission wavelength of 635 n m in a microplate reader (Synergy 2, BioTek Instruments, Vermont, USA). Two independent experiments (each in triplicates) were performed, and all values were normalized to untreated control sample (100%) in each experiment.
To obtain information regarding the toxicity of our compounds, their impact on the viability of human cells was investigated. HepG2 cells (2x10^4 cells per well) were seeded in 96 -well, flat-bottomed culture plates in 100 µL culture medium (DMEM containing 10% fetal calve serum, 1% penicillin -streptomycin). Twenty-four hours after seeding the cells, medium was removed and replaced by medium containing test compounds in a final DMSO concentration of 1%. Compounds were tested in duplicates at a single concentration or, for CC50 determination, at 8 concentrations that were prepared via 2 -fold serial dilutions in 1% DMSO/medium. Epirubicin and doxorubicin were used as positive controls in serial dilutions starting from 10 µM, and rifampicin was used as a negative control (at 100 µM). The living cell mass was determined 48 h after treatment with compounds by adding 0.1 volumes of 3 -(4,5-dimethylthiazol-2-yl)-2,5-diphenyltetrazolium bromide (MTT) solution (5 mg/mL sterile PBS) (Sigma, St. Louis, MO) to the wells. After incubating the cells for 30 min at 37 °C (atmosphere containing 5% CO2), medium was removed and MTT crystals were dissolved in 75 µL of a solution containing 10% SDS and 0.5% acetic acid in DMSO. The optical density (OD) of the samples was determined photometrically at 570 nm in a PHERAstar Omega plate reader (BMG labtech, Ortenberg, Germany). To obtain percent viability for each sample, their ODs were related to those of DMSO controls. […]

A further data set concerns EcK12. Nature of the data set: E. coli growth inhibition, wild-type strain K12. The format is cell-based, Escherichia coli. Particulars: Escherichia coli, 18 h, LB medium, read-out: EcK12 %inh. At 50 μM.

With `COc1ccc(-c2cc(/C=N/NC(=O)Cn3nc(C)cc3C)no2)cc1` [B6, (E)-2-(3,5-Dimethyl-1H-pyrazol-1-yl)-N′-((5-(4-methoxyphenyl)isoxazol-3-yl)methylene)acetohydrazide], the inhibition at 50 µM in the data set on EcTolC was under 10%. In the data set on MtbH37Rv, the “MtbH37Rv MIC90” value was “no inh. at max. sol”. The ΔTm (commonly the change in melting temperature against a reference sample) at 20 µM at MtbIspE [1] was under 0.3 °C. Besides, the “Amplification factors (DCL-4)” value at MtbIspE [2] worked out at 0.9. Further, in the data set “in vitro”, the CC50 was over 50 µM. The concentration in solution in the data set “physchem” (solubility at 5 min) was 65 ± 35 µM (≈ 23 µg/mL). The “MtbIspE binding at 20 μM” value at MtbIspE [3] was “bound in two out of three measurements and 2/3”. Besides, the solubility (as a rule, how much of the substance goes into solution per volume) in data set [4] is 16 µM.

Regarding `Nc1c(C(=O)N/N=C/c2cc(Cl)ccc2O)nnn1-c1cccc(C(F)(F)F)c1` [E1, (E)-5-Amino-N′-(5-chloro-2-hydroxybenzylidene)-1-(3-(trifluoromethyl)phenyl)-1H-1,2,3-triazole-4-carbohydrazide], the inhibition at 50 µM in the data set with EcTolC is under 10%. For the same molecule, the “amplification factor (DCL-1 at 24 h)” value on MtbIspE [2] (DCL-1, 24 h, 25 mol % MtbIspE) worked out at 0.5. The molecule further had a CC50 in “in vitro” of over 50 µM. This molecule yielded a solubility at 5 min in the data set “physchem” of 3.3 ± 1 µM (≈ 1.4 µg/mL). In addition, the “solubility in 7H9” value in data set [4] is listed as “insoluble”.

Consider `Nc1c(C(=O)N/N=C/c2ccc(C(F)(F)F)cc2)nnn1-c1cccc(C(F)(F)F)c1` [E4, (E)-5-Amino-N′-(4-(trifluoromethyl)benzylidene)-1-(3-(trifluoromethyl)phenyl)-1H-1,2,3-triazole-4-carbohydrazide], for which the inhibition at 50 µM in the data set with EcTolC was under 10%. In addition, the “Amplification factors (DCL-4)” value at MtbIspE [2] is reported as 0.7. In the data set “in vitro”, this molecule registered a CC50 of over 50 µM. In “physchem”, the concentration in solution (solubility at 5 min) was 12 ± 6 µM (≈ 5.31 µg/mL). Further, the “MtbIspE binding at 20 μM” value at MtbIspE [3] was “consistently demonstrated binding across all measurements and Yes”. The “solubility in 7H9” value in [4] was “insoluble”.

With `COc1ccc(-c2cc(/C=N/NC(=O)c3nnn(-c4cccc(C(F)(F)F)c4)c3N)no2)cc1` [E6, (E)-5-Amino-N′-((5-(4-methoxyphenyl)isoxazol-3-yl)methylene)-1-(3-(trifluoromethyl)phenyl)-1H-1,2,3-triazole-4-carbohydrazide], the inhibition at 50 µM in the data set with EcTolC is under 10%. The ΔTm at 20 µM at MtbIspE [1] amounted to 0.7 °C. Further, on MtbIspE [2], the “Amplification factors (DCL-4)” value was determined as 2.3. Further, the CC50 in “in vitro” was over 50 µM. The molecule also displayed a solubility at 5 min in “physchem” of 29 ± 10 µM (≈ 13.7 µg/mL). Also, the “MtbIspE binding at 20 μM” value at MtbIspE [3] is given as “No”. In addition, the “solubility in 7H9” value in data set [4] is given as “insoluble”.

With `COc1ccc(NC(=O)c2cc(C(=O)N/N=C/c3cc(Cl)ccc3O)n(C)n2)cc1OC` [H1, (E)-5-(2-(5-Chloro-2-hydroxybenzylidene)hydrazine-1-carbonyl)-N-(3,4-dimethoxyphenyl)-1-methyl-1H-pyrazole-3-carboxamide], the inhibition at 50 µM with EcTolC is under 10%. Moreover, in the data set with MtbH37Rv, the “MtbH37Rv MIC90” value is “no inh. at max. sol”. The ΔTm at 20 µM at MtbIspE [1] was under 0.3 °C. The “Amplification factors (DCL-3)” value at MtbIspE [2] was found to be 7.8. This molecule also returned a CC50 in “in vitro” of 32 ± 5 µM. In the data set “physchem”, this molecule had a solubility at 5 min of 28 ± 6 µM (≈ 12.8 µg/mL). For the same molecule, at MtbIspE [3], the “MtbIspE binding at 20 μM” value is reported as “No”. For the same molecule, in data set [4], the solubility was 32 µM.

In the case of `O=C(N/N=C/c1cc(Cl)ccc1O)C12CC3CC(C1)CC(n1cnc(Cl)n1)(C3)C2` [I1, (1R,3S,5R,7S)-3-(3-Chloro-1H-1,2,4-triazol-1-yl)-N′-((Z)-5-chloro-2-hydroxybenzylidene)adamantane-1-carbohydrazide], the inhibition at 50 µM is 33 ± 3% in the data set with EcTolC and under 10% with EcK12. Moreover, the “MtbH37Rv MIC90” value in the data set on MtbH37Rv is on record as “no inh. at max. sol”. Moreover, the “Amplification factors (DCL-3)” value on MtbIspE [2] is recorded as 2.0. Also, in the data set “physchem”, the solubility at 5 min came out at 8 ± 4 µM (≈ 3.47 µg/mL). For the same molecule, the solubility in data set [4] is 64 µM.

The values above are taken from paper PMC11391541, “Target-Directed Dynamic Combinatorial Chemistry Affords Binders of Mycobacterium tuberculosis IspE” (ACS Omega, 2024).
